Experimental data taken from US20180327367A1, “MACROCYCLIC BROAD SPECTRUM ANTIBIOTICS” (priority 2015, published 2018).
Values after ≈ are worked out from the molar mass of the structure shown. Where two headings read alike, the source gives them in different places.

Key:
[1] = test system: Escherichia coli MC4100 harboring the IMP4213 (E. coli IMP); assay: microbe, parasite or virus in culture; type: cell-based; conditions: Escherichia coli, 22 h
Summary of the method: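 Top conc 4 μg/mL (protocol 2) or 0.5 μg/mL (protocol 3), 2-fold series, 10 points. Final OD600 0.0005; 22 h, 35° C. IMP4213 = permeable outer membrane.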

[2] = test system: Escherichia coli ATCC 25922; assay: Minimum inhibitory concentration, broth micro-dilution (CLSI), E. coli; type: cell-based; conditions: Escherichia coli, ATCC25922, 22 h
[3] = test system: Methicillin Resistant Staphylococcus aureus strain USA 300, NRS384; assay: Minimum inhibitory concentration, broth micro-dilution (CLSI), S. aureus; type: cell-based; conditions: Staphylococcus aureus, MRSA / NRS 384 / USA300, 22 h
Summary of the method: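 CLSI broth microdilution in cation-adjusted Mueller Hinton Broth with 0.002% Tween-80; inoculum final OD600 0.0005, 22 hours at 35° C. Ten 2-fold dilutions starting at 4 μg/mL (protocol 2) or 0.5 μg/mL (protocol 3).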

[4] = molecular target: T1, SpsB (Staphylococcus aureus signal peptidase) (Staphylococcus aureus, UniProt P0A070); assay: cell-based; type: biochemical; conditions: SpsB IC50, whole-cell S. aureus (USA300 background, overexpressing SpsB) as SpsB source; fluorogenic peptide substrate, kinetic read 30 min
T1 construct: This assay uses a suspension of Staphylococcus aureus cells as a source of SpsB instead of recombinant SpsB protein; endogenous in cells; host or cells: S. aureus, USA300 background, overexpressing SpsB (whole-cell suspension from frozen pellets)
Summary of the method: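 Cleavage of an internally quenched (Dabcyl)βAla-KPAKAAE(Edans) peptide, added as 20 μM solution mixed 1:1 with cells, was followed for 30 min at 340/490 nm. SpsB came from a suspension of SpsB-overexpressing USA300 S. aureus in Tween-80-containing PBS buffer. Slopes plotted against 3-fold compound dilutions gave IC50.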

[5] = read-out: MIC (μg/mL) E. coli IMP, E. coli MC4100 IMP4213, increased outer-membrane permeability, 35° C., 22 hours
[6] = E. coli ATCC 25922, 35° C., 22 hours, read-out: MIC (μg/mL) E. coli
[7] = MRSA USA 300 NRS384, 35° C., 22 hours, read-out: MIC (μg/mL) S. aureus
[8] = read-out: MIC (μg/mL) E. coli IMP
[9] = read-out: MIC (μg/mL) S. aureus

T1 sequence (P0A070 whole entry): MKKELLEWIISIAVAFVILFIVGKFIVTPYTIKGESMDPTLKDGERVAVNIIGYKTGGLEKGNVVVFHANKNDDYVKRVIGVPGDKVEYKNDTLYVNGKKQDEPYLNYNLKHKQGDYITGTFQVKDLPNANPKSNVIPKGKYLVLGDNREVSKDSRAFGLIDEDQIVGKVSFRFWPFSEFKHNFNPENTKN

## CCCCCCCCNCCCCC(=O)N(C)[C@@H]1C(=O)N[C@@H](C)C(=O)N[C@H](C(=O)NCC#N)Cc2ccc(OCCN)c(c2)-c2cc1ccc2OCCN [Compound 134]
[1]; [5]
  MIC: > 4 µg/mL
[2]; [6]
  MIC: > 64 µg/mL
[3]; [7]
  MIC: 1.5 µg/mL (≈ 2 µM)
[4]
  IC50: 3.5 nM

## CCCCCCCCc1ccc(C(=O)N[C@@H](CO)C(=O)N(C)[C@@H]2C(=O)N[C@@H](C)C(=O)N[C@H](C(=O)NCC#N)Cc3ccc(OCCN)c(c3)-c3cc2ccc3OCCN)c(C)c1 [Compound 235]
[1]; [5]
  MIC: 0.012 µg/mL (≈ 0.014 µM)
[2]; [6]
  MIC: 1 µg/mL (≈ 1.17 µM)
[3]; [7]
  MIC: 0.094 µg/mL (≈ 0.11 µM)
[4]
  IC50: 0.98 nM

## Cc1cc(C2CC2)ccc1C(=O)N[C@@H](CCN)C(=O)N(C)[C@@H]1C(=O)N[C@@H](C)C(=O)N[C@H](C(=O)NCC#N)Cc2ccc(OCCN)c(c2)-c2cc1ccc2OCCN [Compound 216]
[1]; [5]
  MIC: 0.25 µg/mL (≈ 0.314 µM)
[2]; [6]
  MIC: 8 µg/mL (≈ 10.1 µM)
[3]; [7]
  MIC: 1 µg/mL (≈ 1.26 µM)
[4]
  IC50: 3.3 nM

## Cc1cc(CC(C)C)ccc1C(=O)N[C@@H](CCN)C(=O)N(C)[C@@H]1C(=O)N[C@@H](C)C(=O)N[C@H](C(=O)NCC#N)Cc2ccc(OCCN)c(c2)-c2cc1ccc2OCCN [Compound 218]
[1]; [5]
  MIC: 0.031 µg/mL (≈ 0.0382 µM)
[2]; [6]
  MIC: 2 µg/mL (≈ 2.46 µM)
[3]; [7]
  MIC: 0.25 µg/mL (≈ 0.308 µM)
[4]
  IC50: 0.88 nM

## CCCCc1cnc(-c2ccc(C(=O)N[C@@H](CCN)C(=O)N(C)[C@@H]3C(=O)N[C@@H](C)C(=O)N[C@H](C(=O)NCC#N)Cc4ccc(OCCN)c(c4)-c4cc3ccc4OCCN)c(C)c2)nc1 [Compound 175]
[1]; [5]
  MIC: 0.0078 µg/mL (≈ 0.00876 µM)
[2]; [6]
  MIC: 0.5 µg/mL (≈ 0.562 µM)
[3]; [7]
  MIC: 0.13 µg/mL (≈ 0.146 µM)
[4]
  IC50: 0.76 nM

## Cc1nc(-c2ccc([Si](C)(C)C)cc2)ncc1C(=O)N[C@@H](CCN)C(=O)N(C)[C@@H]1C(=O)N[C@@H](C)C(=O)N[C@H](C(=O)NCC#N)Cc2ccc(OCCN)c(c2)-c2cc1ccc2OCCN [Compound 170]
[1]; [8]
  MIC: 0.0085 µg/mL (≈ 0.00938 µM)
[2]; read-out: MIC (μg/mL) E. coli
  MIC: 0.13 µg/mL (≈ 0.143 µM)
[3]; [9]
  MIC: 0.073 µg/mL (≈ 0.0806 µM)
[4]
  IC50: 0.72 nM

## CCCCCCCc1ccc(C(=O)N[C@@H](CCCN)C(=O)N(C)[C@@H]2C(=O)N[C@@H](C)C(=O)N[C@H](C(=O)NCC#N)Cc3ccc(OCCN)c(c3)-c3cc2ccc3OCCN)c(C)c1 [Compound 194]
[1]; [5]
  MIC: 0.0078 µg/mL (≈ 0.00899 µM)
[2]; [6]
  MIC: 0.25 µg/mL (≈ 0.288 µM)
[3]; [7]
  MIC: 0.016 µg/mL (≈ 0.0184 µM)
[4]
  IC50: 0.83 nM

## CCC(C)c1ccc(C(=O)N[C@@H](CCN)C(=O)N(C)[C@@H]2C(=O)N[C@@H](C)C(=O)N[C@H](C(=O)NCC#N)Cc3ccc(OCCN)c(c3)-c3cc2ccc3OCCN)c(C)c1 (some centres unmarked) [Compound 434]
[1]; [5]
  MIC: 0.047 µg/mL (≈ 0.0579 µM)
[2]; [6]
  MIC: 2 µg/mL (≈ 2.46 µM)
[3]; [7]
  MIC: 0.25 µg/mL (≈ 0.308 µM)
[4]
  IC50: 1.5 nM

## CCCCc1ccc(-c2ccc(C(=O)N[C@@H](CCCN)C(=O)N(C)[C@@H]3C(=O)N[C@@H](C)C(=O)N[C@H](C(=O)N4CC4C#N)Cc4ccc(OCCN)c(c4)-c4cc3ccc4OCCN)cc2)cc1 (some centres unmarked) [Compound 520]
[1]; [8]
  MIC: 0.19 µg/mL (≈ 0.211 µM)
[2]; read-out: MIC (μg/mL) E. coli
  MIC: 6 µg/mL (≈ 6.67 µM)
[3]; [9]
  MIC: 0.38 µg/mL (≈ 0.422 µM)
[4]
  IC50: 0.73 nM

## CCCCCCc1ccc(C(=O)N[C@@H](CCCCN)C(=O)N(C)[C@@H]2C(=O)N[C@@H](C)C(=O)N[C@H](C(=O)NCC#N)Cc3ccc(OCCN)c(c3)-c3cc2ccc3OCCN)c(C)c1 [Compound 199]
[1]; [5]
  MIC: 0.031 µg/mL (≈ 0.0357 µM)
[2]; [6]
  MIC: 3 µg/mL (≈ 3.46 µM)
[3]; [7]
  MIC: 0.031 µg/mL (≈ 0.0357 µM)
[4]
  IC50: 0.73 nM

## CCCCCCCc1cc(C)c(C(=O)N[C@@H](CCN)C(=O)N(C)[C@@H]2C(=O)N[C@@H](C)C(=O)N[C@H](C(=O)NCC#N)Cc3ccc(OCCN)c(c3)-c3cc2ccc3OCCN)cn1 [Compound 313]
[1]; [5]
  MIC: 0.0078 µg/mL (≈ 0.00912 µM)
[2]; [6]
  MIC: 0.5 µg/mL (≈ 0.585 µM)
[3]; [7]
  MIC: 0.031 µg/mL (≈ 0.0363 µM)
[4]
  IC50: 0.68 nM

## CCCCCCCCCCCCCC(=O)N(C)[C@@H]1C(=O)N[C@@H](C)C(=O)N[C@H](C(=O)NCC#N)Cc2ccc(OCCN)c(c2)-c2cc1ccc2OCCN [Compound 475]
[1]; [5]
  MIC: 0.5 µg/mL (≈ 0.668 µM)
[2]; [6]
  MIC: 6 µg/mL (≈ 8.02 µM)
[3]; [7]
  MIC: 1 µg/mL (≈ 1.34 µM)
[4]
  IC50: 18 nM

## CCCCCCCCCC(=O)N[C@@H](CO)C(=O)N[C@@H](CCN)C(=O)N(C)[C@@H]1C(=O)N[C@@H](C)C(=O)N[C@H](C(=O)NCC#N)Cc2ccc(OCCN)c(c2)-c2cc1ccc2OCCN [Compound 360]
[1]; [5]
  MIC: 0.31 µg/mL (≈ 0.353 µM)
[2]; read-out: MIC (μg/mL) E. coli, E. coli ATCC 25922, 35° C., 22 hours
  MIC: 24 µg/mL (≈ 27.3 µM)
[3]; read-out: MIC (μg/mL) S. aureus, MRSA USA 300 NRS384, 35° C., 22 hours
  MIC: 0.22 µg/mL (≈ 0.25 µM)
[4]
  IC50: 1.2 nM

## Cc1nc(-c2ccc(CC(C)C)cc2)sc1C(=O)N[C@@H](CCN)C(=O)N(C)[C@@H]1C(=O)N[C@@H](C)C(=O)N[C@H](C(=O)NCC#N)Cc2ccc(OCCN)c(c2)-c2cc1ccc2OCCN [Compound 166]
[1]; [5]
  MIC: 0.016 µg/mL (≈ 0.0179 µM)
[2]; [6]
  MIC: 0.5 µg/mL (≈ 0.559 µM)
[3]; [7]
  MIC: 0.063 µg/mL (≈ 0.0704 µM)
[4]
  IC50: 0.78 nM
